Values of other authors in US20140148399A1, “Compositions and methods for treating or ameliorating obesity or for reducing diabetic hypercholesterolemia” (UNIVERSITY OF TSUKUBA, priority 2012, published 2014).

System: 3T3-L1 cells

## COc1cc(-c2oc3cc(O)cc(O)c3c(=O)c2O)ccc1O [Isorhamnetin]
  adiponectin expression and secretion: reduces
3T3-L1 adipocyte differentiation
  C/EBP-α and PPAR-γ mRNA levels: reducing
By inhibiting 3T3-L1 adipocyte differentiation
  adipogenesis in 3T3-L1 cells: represses adipogenesis
